# In patent US6048715A, “Two-phase partition affinity separation system and affinity separated cell-containing composition” (priority 1996, dated 2000):
# Molecular target: T1, CBDN1 (Cellulomonas fimi, UniProt P14090)
# T1 construct: Cex leader peptide (secretion signal of the vector) (N); made in house; purified from the culture supernatant
# T1 sequence (P14090 33-184): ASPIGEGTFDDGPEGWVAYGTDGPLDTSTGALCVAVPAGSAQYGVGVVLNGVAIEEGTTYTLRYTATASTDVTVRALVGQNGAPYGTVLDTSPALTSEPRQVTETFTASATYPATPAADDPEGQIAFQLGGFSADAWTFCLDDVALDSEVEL
# Assay: Isothermal titration microcalorimetry of oligosaccharide binding
# Conditions: N1 binding, 35° C., Table 8
# From the text: The PBP can be obtained following isolation and purification of the enzyme by clipping off the PBP from the remainder of the enzyme. For use in the phase separation system, the PBP is screened for binding to soluble phase-forming oligosaccharides. While any of a number of methods can be used for screening, including NMR alone, NMA/calorimetry, affinity electrophoresis alone, affinity electrophoresis/competition assay, and binding isotherms. Binding equilibrium studies using isothermal titration microcalorimetry (ITC) are preferred. The advantage of isothermal titration microcalorimetry […] in binding equilibrium studies derives from the fact that binding isotherms are defined by the experiment in terms of heats of reaction; as such, they allow a direct estimation of enthalpy (and entropy (changes in addition to the association constant. Thus, a single microcalorimetric titration provides a complete characterization of the binding energetics along with the binding isotherm. (Haynes et al., J. Colloid Interface Sci., (1994) 169:313; Colloids & Surfaces, (1994) 2:517.
# Microcalorimetry was used to measure binding thermodynamics for CBDN1 to a wide range of water-soluble oligosaccharides with the aim of identifying a set of suitable ligands for the affinity partition system. […] For both oligosaccharides,CPDN1 binding is as tight or even tighter than nearly all PEG-based affinity ligands (e.g., Cibacron blue-PEG, Procion red-PEG, dinitrophenyl-PEG, diacetic acid-PEG) currently in use in affinity partition systems.
-TΔS^o [kcal/mol],ΔH^o [kcal/mol],Structure (SMILES)
0.79,-6.9 ± 0.2,OC[C@H]1O[C@@H](O[C@H]2[C@H](O)[C@@H](O)[C@H](O[C@H]3[C@H](O)[C@@H](O)[C@H](O[C@H]4[C@H](O)[C@@H](O)[C@H](O[C@H]5[C@H](O)[C@@H](O)[C@H](O[C@H]6[C@H](O)[C@@H](O)C(O)O[C@@H]6CO)O[C@@H]5CO)O[C@@H]4CO)O[C@@H]3CO)O[C@@H]2CO)[C@H](O)[C@@H](O)[C@@H]1O (stereo partly drawn) [Cellohexaose]
0.86,-6.8 ± 0.2,OC[C@H]1O[C@@H](O[C@H]2[C@H](O)[C@@H](O)[C@H](O[C@H]3[C@H](O)[C@@H](O)[C@H](O[C@H]4[C@H](O)[C@@H](O)[C@H](O[C@H]5[C@H](O)[C@@H](O)C(O)O[C@@H]5CO)O[C@@H]4CO)O[C@@H]3CO)O[C@@H]2CO)[C@H](O)[C@@H](O)[C@@H]1O (stereo partly drawn) [Cellopentaose]
1.4 ± 0.1,-6.4 ± 0.2,OC[C@H]1O[C@@H](O[C@H]2[C@H](O)[C@@H](O)[C@H](O[C@H]3[C@H](O)[C@@H](O)[C@H](O[C@H]4[C@H](O)[C@@H](O)C(O)O[C@@H]4CO)O[C@@H]3CO)O[C@@H]2CO)[C@H](O)[C@@H](O)[C@@H]1O (stereo partly drawn) [Cellotetraose]
